Experimental data as given in paper PMC5371851 (Toxins, 2017).

Legend:
porcine IPEC-1 = conditions: pig intestine cell (IPEC-1); cited from earlier work
[1] = tested on: human gastric epithelial (GES-1) cells

Structure (SMILES) | toxicity relative to DON (porcine IPEC-1) | relative potency in reducing cell viability (fold less) [1] | effect on cell viability ([1]; human) | Dm (median-effect dose, IC50 value) [1] | EC30 (effective concentration of 30% inhibiting cell viability rate) [1] | EC70 (effective concentration of 70% inhibiting cell viability rate) [1] | m (slope of median-effect curves) [1] | toxicity to GES-1 cells [1]
CC(=O)O[C@@H]1C[C@]2(C)[C@@]3(CO)[C@H](O)C(=O)C(C)=C[C@H]3O[C@H]1[C@@]21CO1 [3-ADON, 3-acetyldeoxynivalenol] | less toxicity than DON | ten-fold | neither D3G nor 3-ADON decreased any cell viability |  |  |  |  | 
CC(=O)OC[C@]12[C@H](O)C(=O)C(C)=C[C@H]1O[C@@H]1[C@H](O)C[C@@]2(C)[C@]12CO2 [15-ADON, 15-acetyldeoxynivalenol] |  |  |  | 4.77 ppm | 1.13 | 20.05 | 0.59 | 
CC1=C[C@H]2O[C@@H]3[C@H](O[C@@H]4O[C@H](CO)[C@@H](O)[C@H](O)[C@H]4O)C[C@](C)([C@@]2(CO)[C@H](O)C1=O)[C@]31CO1 [D3G, deoxynivalenol-3-glucoside] |  |  |  |  |  |  |  | no toxicity
CC1=C[C@H]2O[C@@H]3[C@H](O)C[C@](C)([C@@]2(CO)[C@H](O)C1=O)[C@]31CO1 [DON, deoxynivalenol] |  |  |  | 2.99 ppm | 0.75 | 11.99 | 0.61 | 
CC(=O)O[C@@H]1[C@@H](O)[C@H]2O[C@@H]3C=C(C)C(=O)[C@@H](O)[C@]3(CO)[C@]1(C)[C@]21CO1 [FX, Fusarenon-X] |  |  |  | 0.85 ppm | 0.15 | 4.97 | 0.48 | 
CC1=C[C@H]2O[C@@H]3[C@H](O)[C@@H](O)[C@](C)([C@@]2(CO)[C@H](O)C1=O)[C@]31CO1 [NIV, Nivalenol] |  |  |  | 0.58 ppm | 0.08 | 4.36 | 0.42 | 
